The results in this text go back to patent publication EP0409999A1, “LIQUID PREPARATION FOR INTRAOCULAR PERFUSION” (Senju Pharmaceutical Co., Ltd., priority 1989, dated 1990).

In this experiment the test system is corneal endothelial cell monolayer. Put plainly: Corneal endothelial barrier function: CF permeation through cultured corneal endothelial cell monolayer on permeable collagen membrane. The following applies: result in words; effect grows with increasing concentration of substance (I) in the test solution. The format is cell-based, male white rabbits. How it is done: The eyeballs of male white rabbits were enucleated and in a culture medium prepared by adding 10 % fetal calf serum to Dulbecco's Modified MEM (trademark: Dulbecco's Modified Eagle Medium "Nissui" 2, Nissui Pharmaceutical), (hereinafter referred to as DMEM), the cornea was cut out along the corneosclerai limbus with a pair of scissors. From each of the isolated corneal specimens (8 eyes), the endothelium with Descemet's membrane was peeled off, shorn into small pieces, and seeded with about 5 ml of DMEM in a 75 cm^2 culture flask (trademark: Nunclon Tissue Culture Flask 147589; manufactured by Nunc). After adhesion of the cells to the bottom of the flask, about 20 ml of DMEM was added and the cells were cultured for about 7 days until the growth on the internal wall of the flask became confluent. During this period, the medium was replaced with fresh one every 3 days. After completion of culture, the cells were digested with 5 ml of EDTA- trypsin (a phosphate buffer containing 0.01 % of EDTA and 0.125 % of trypsin and not containing calcium or magnesium ion) and, then, mixed with a sufficient quantity of DMEM to terminate the digestion. The digest was centrifuged at 1000 rpm for 2 minutes and the cells were then collected. The harvested cells were re-suspended in DMEM and filtered through a […] nylon filter to remove Descemet's membrane, leaving an exclusive suspension of cells. […]

As to `O=C1O[C@H]([C@@H](O)CO)C(O)=C1OP(=O)(O)O` [substance (I)], the “permeation of CF through the cultured corneal endothelial cell monolayer” value was “inhibits the permeation of CF”.
